What all share (assay): relative viability (nuclei count vs DMSO), 5 days (fraction); higher = more cells survive
Compound in the assay “Selisistat + Dasatinib”: C1CC(C2=C(C1)C3=C(N2)C=CC(=C3)Cl)C(=O)N [Selisistat] + Cc1nc(Nc2ncc(C(=O)Nc3c(C)cccc3Cl)s2)cc(N2CCN(CCO)CC2)n1 [Dasatinib] (partner 0.075 µM)
Summed up: (§1)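 Relative viability is defined as nuclei in treated wells over nuclei in vehicle wells. Duplicate plates were run and medians reported. Lung cancer cell lines in 1536-well plates were dosed by pin tool one day after seeding, with one drug or with a fixed anchor-drug dose plus five library-drug doses (not always all listed) in √10 steps, and nuclei were counted after 5 days.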

Compound in the assay “Serdemetan + Crizotinib”: c1ccc2c(CCNc3ccc(Nc4ccncc4)cc3)c[nH]c2c1 [Serdemetan] + C[C@@H](Oc1cc(-c2cnn(C3CCNCC3)c2)cnc1N)c1c(Cl)ccc(F)c1Cl [Crizotinib] (partner 1 µM)
The method in brief: as §1

Compound in the assay “Serdemetan + Olaparib”: c1ccc2c(CCNc3ccc(Nc4ccncc4)cc3)c[nH]c2c1 [Serdemetan] + O=C(c1cc(Cc2n[nH]c(=O)c3ccccc23)ccc1F)N1CCN(C(=O)C2CC2)CC1 [Olaparib] (partner 8 µM)
Summed up: as §1

Compound in the assay “Selisistat + Lapatinib”: C1CC(C2=C(C1)C3=C(N2)C=CC(=C3)Cl)C(=O)N [Selisistat] + CS(=O)(=O)CCNCc1ccc(-c2ccc3ncnc(Nc4ccc(OCc5cccc(F)c5)c(Cl)c4)c3c2)o1 [Lapatinib] (partner 2 µM)
The method in brief:
as §1

Consider 11 cell lines from the supplement of paper PMC10307832.

As for LCLC-103H, the relative viability with Selisistat + Dasatinib (first compound 0.4 µM) amounted to 0.527; in the assay with Selisistat + Dasatinib (first compound 1.265 µM) it was 0.475; with Selisistat + Dasatinib (first compound 4 µM), 0.456; in the assay with Selisistat + Dasatinib (first compound 12.65 µM), 0.507; in the assay with Selisistat + Dasatinib (first compound 40 µM) it was 0.548; in the assay with Serdemetan + Crizotinib (first compound 0.04 µM), 0.977. Moreover, the relative viability was found to be 1.12 with Serdemetan + Crizotinib (first compound 0.1265 µM); 0.979 with Serdemetan + Crizotinib (first compound 0.4 µM); 0.94 in the assay with Serdemetan + Crizotinib (first compound 1.265 µM); 0.995 with Serdemetan + Crizotinib (first compound 4 µM); 0.742 with Serdemetan + Olaparib (first compound 0.04 µM); 0.727 in the assay with Serdemetan + Olaparib (first compound 0.1265 µM). Moreover, the relative viability with Serdemetan + Olaparib (first compound 0.4 µM) stood at 0.661; with Serdemetan + Olaparib (first compound 1.265 µM), 0.593; in the assay with Serdemetan + Olaparib (first compound 4 µM) it was 0.728.
For NCI-H441, the relative viability with Selisistat + Dasatinib (first compound 0.4 µM) is 0.623; in the assay with Selisistat + Dasatinib (first compound 1.265 µM), 0.671; in the assay with Selisistat + Dasatinib (first compound 4 µM), 0.427; in the assay with Selisistat + Dasatinib (first compound 12.65 µM) it was 0.549; in the assay with Selisistat + Dasatinib (first compound 40 µM), 0.62; with Serdemetan + Crizotinib (first compound 0.04 µM), 0.721. For the same cell line, the relative viability with Serdemetan + Crizotinib (first compound 0.1265 µM) is 0.713; with Serdemetan + Crizotinib (first compound 0.4 µM), 0.649; with Serdemetan + Crizotinib (first compound 1.265 µM), 0.487; in the assay with Serdemetan + Crizotinib (first compound 4 µM), 0.596; with Serdemetan + Olaparib (first compound 0.04 µM), 0.513; in the assay with Serdemetan + Olaparib (first compound 0.1265 µM) it was 0.422. Moreover, the relative viability with Serdemetan + Olaparib (first compound 0.4 µM) worked out at 0.5; in the assay with Serdemetan + Olaparib (first compound 1.265 µM) it was 0.3; with Serdemetan + Olaparib (first compound 4 µM) it was 0.281.
Consider NCI-H522, for which the relative viability came to 0.736 with Selisistat + Dasatinib (first compound 0.4 µM); 0.644 with Selisistat + Dasatinib (first compound 1.265 µM); 0.784 in the assay with Selisistat + Dasatinib (first compound 4 µM); 0.803 with Selisistat + Dasatinib (first compound 12.65 µM); 0.759 in the assay with Selisistat + Dasatinib (first compound 40 µM); 0.595 with Serdemetan + Olaparib (first compound 0.04 µM). Moreover, the relative viability with Serdemetan + Olaparib (first compound 0.1265 µM) amounted to 0.665; in the assay with Serdemetan + Olaparib (first compound 0.4 µM), 0.65; with Serdemetan + Olaparib (first compound 1.265 µM), 0.458; with Serdemetan + Olaparib (first compound 4 µM), 0.477.
For the cell line NCI-H1299, the relative viability with Selisistat + Lapatinib (first compound 0.4 µM) came to 0.967; in the assay with Selisistat + Lapatinib (first compound 1.265 µM), 0.947; with Selisistat + Lapatinib (first compound 4 µM), 0.961; with Selisistat + Lapatinib (first compound 12.65 µM) it was 0.991; in the assay with Selisistat + Lapatinib (first compound 40 µM), 0.964; with Serdemetan + Crizotinib (first compound 0.04 µM), 0.898. In addition, the relative viability in the assay with Serdemetan + Crizotinib (first compound 0.1265 µM) came out at 0.947; with Serdemetan + Crizotinib (first compound 0.4 µM), 0.905; with Serdemetan + Crizotinib (first compound 1.265 µM) it was 0.866; with Serdemetan + Crizotinib (first compound 4 µM), 0.716; with Serdemetan + Olaparib (first compound 0.04 µM), 0.953; with Serdemetan + Olaparib (first compound 0.1265 µM) it was 0.91. Besides, the relative viability came to 0.869 with Serdemetan + Olaparib (first compound 0.4 µM), 0.787 with Serdemetan + Olaparib (first compound 1.265 µM) and 0.57 with Serdemetan + Olaparib (first compound 4 µM).
In the case of NCI-H1395, the relative viability with Selisistat + Lapatinib (first compound 0.4 µM) turned out to be 1.09; with Selisistat + Lapatinib (first compound 1.265 µM) it was 0.973; with Selisistat + Lapatinib (first compound 4 µM) it was 1; in the assay with Selisistat + Lapatinib (first compound 12.65 µM) it was 0.91; in the assay with Selisistat + Lapatinib (first compound 40 µM) it was 0.883; with Selisistat + Dasatinib (first compound 0.4 µM) it was 0.468. Moreover, the relative viability with Selisistat + Dasatinib (first compound 1.265 µM) was found to be 0.426; with Selisistat + Dasatinib (first compound 4 µM), 0.407; in the assay with Selisistat + Dasatinib (first compound 12.65 µM), 0.402; in the assay with Selisistat + Dasatinib (first compound 40 µM) it was 0.389; with Serdemetan + Olaparib (first compound 0.04 µM), 0.445; with Serdemetan + Olaparib (first compound 0.1265 µM), 0.442. Further, the relative viability in the assay with Serdemetan + Olaparib (first compound 0.4 µM) worked out at 0.443; in the assay with Serdemetan + Olaparib (first compound 1.265 µM), 0.478; in the assay with Serdemetan + Olaparib (first compound 4 µM), 0.399.
For NCI-H1563, the relative viability with Selisistat + Lapatinib (first compound 0.4 µM) is 1.03; in the assay with Selisistat + Lapatinib (first compound 1.265 µM), 0.95; with Selisistat + Lapatinib (first compound 4 µM), 0.881; with Selisistat + Lapatinib (first compound 12.65 µM), 0.825; in the assay with Selisistat + Lapatinib (first compound 40 µM), 0.921; with Selisistat + Dasatinib (first compound 0.4 µM) it was 0.496. Further, the relative viability amounted to 0.443 in the assay with Selisistat + Dasatinib (first compound 1.265 µM); 0.319 with Selisistat + Dasatinib (first compound 4 µM); 0.438 in the assay with Selisistat + Dasatinib (first compound 12.65 µM); 0.549 with Selisistat + Dasatinib (first compound 40 µM); 0.835 in the assay with Serdemetan + Crizotinib (first compound 0.04 µM); 0.786 in the assay with Serdemetan + Crizotinib (first compound 0.1265 µM). Further, the relative viability in the assay with Serdemetan + Crizotinib (first compound 0.4 µM) turned out to be 0.77; in the assay with Serdemetan + Crizotinib (first compound 1.265 µM) it was 0.68; with Serdemetan + Crizotinib (first compound 4 µM), 0.704.
NCI-H1648: the relative viability was determined as 0.744 with Serdemetan + Olaparib (first compound 0.1265 µM), 0.633 with Serdemetan + Olaparib (first compound 0.4 µM), 0.399 in the assay with Serdemetan + Olaparib (first compound 1.265 µM) and 0.425 with Serdemetan + Olaparib (first compound 4 µM).
On to NCI-H1703, for which the relative viability with Selisistat + Lapatinib (first compound 0.4 µM) is 1.1; with Selisistat + Lapatinib (first compound 1.265 µM), 1.06; in the assay with Selisistat + Lapatinib (first compound 4 µM) it was 1.12; with Selisistat + Lapatinib (first compound 12.65 µM), 1.05; in the assay with Selisistat + Lapatinib (first compound 40 µM), 1.05; with Serdemetan + Crizotinib (first compound 0.04 µM) it was 0.665. In addition, the relative viability with Serdemetan + Crizotinib (first compound 0.1265 µM) was 0.872; with Serdemetan + Crizotinib (first compound 0.4 µM), 0.815; in the assay with Serdemetan + Crizotinib (first compound 1.265 µM), 0.73; with Serdemetan + Crizotinib (first compound 4 µM), 0.217; with Serdemetan + Olaparib (first compound 0.04 µM) it was 0.427; in the assay with Serdemetan + Olaparib (first compound 0.1265 µM), 0.397. The relative viability amounted to 0.415 with Serdemetan + Olaparib (first compound 0.4 µM), 0.386 with Serdemetan + Olaparib (first compound 1.265 µM) and 0.333 in the assay with Serdemetan + Olaparib (first compound 4 µM).
In the case of NCI-H1793, the relative viability with Selisistat + Lapatinib (first compound 0.4 µM) was determined as 0.793; in the assay with Selisistat + Lapatinib (first compound 1.265 µM) it was 0.636; with Selisistat + Lapatinib (first compound 12.65 µM), 0.816; with Selisistat + Lapatinib (first compound 40 µM), 0.816; with Selisistat + Dasatinib (first compound 0.4 µM) it was 0.359; with Selisistat + Dasatinib (first compound 1.265 µM), 0.394. Further, the relative viability turned out to be 0.426 with Selisistat + Dasatinib (first compound 12.65 µM); 0.344 with Selisistat + Dasatinib (first compound 40 µM); 0.814 with Serdemetan + Olaparib (first compound 0.04 µM); 0.73 with Serdemetan + Olaparib (first compound 0.1265 µM); 0.547 with Serdemetan + Olaparib (first compound 0.4 µM); 0.316 with Serdemetan + Olaparib (first compound 1.265 µM). The relative viability in the assay with Serdemetan + Olaparib (first compound 4 µM) came to 0.285.
On to NCI-H2342, for which the relative viability turned out to be 0.312 in the assay with Selisistat + Dasatinib (first compound 0.4 µM); 0.339 in the assay with Selisistat + Dasatinib (first compound 1.265 µM); 0.297 with Selisistat + Dasatinib (first compound 4 µM); 0.33 with Selisistat + Dasatinib (first compound 12.65 µM); 0.363 in the assay with Selisistat + Dasatinib (first compound 40 µM); 0.621 with Serdemetan + Olaparib (first compound 0.04 µM). The relative viability came out at 0.445 with Serdemetan + Olaparib (first compound 0.1265 µM), 0.416 with Serdemetan + Olaparib (first compound 0.4 µM), 0.236 with Serdemetan + Olaparib (first compound 1.265 µM) and 0.334 with Serdemetan + Olaparib (first compound 4 µM).
Regarding SW 900, the relative viability worked out at 0.664 in the assay with Selisistat + Dasatinib (first compound 0.4 µM); 0.409 with Selisistat + Dasatinib (first compound 1.265 µM); 0.641 with Selisistat + Dasatinib (first compound 4 µM); 0.496 with Selisistat + Dasatinib (first compound 12.65 µM); 0.791 with Selisistat + Dasatinib (first compound 40 µM); 1.03 in the assay with Serdemetan + Olaparib (first compound 0.04 µM). Further, the relative viability with Serdemetan + Olaparib (first compound 0.1265 µM) stood at 0.892; with Serdemetan + Olaparib (first compound 0.4 µM) it was 0.861; with Serdemetan + Olaparib (first compound 1.265 µM), 0.691; with Serdemetan + Olaparib (first compound 4 µM) it was 0.459.
